Experimental data as given in ChEMBL document CHEMBL3414551, “Selective inhibitors of protein methyltransferases” (J Med Chem, 2015).

Key:
[1] = biological target: T1, Histone-lysine N-methyltransferase EZH2 (Homo sapiens, UniProt Q15910); experiment: Inhibition of EZH2 (unknown origin) using biotinylated-histone H3 (1 to 24) as substrate after 1 hr by scintillation proximity assay in presence of [3H]-SAM
[2] = biological target: T1, Histone-lysine N-methyltransferase EZH2; experiment: Inhibition of human EZH2 using SAM and histone H3 (16 to 30) as substrate preincubated for 30 mins followed by substrate addition measured after 90 mins by flash plate assay
[3] = biological target: T2, N-lysine methyltransferase KMT5A (Homo sapiens, UniProt Q9NQR1); experiment: Inhibition of N-terminal His6-tagged human SETD8 (191 to 352) assessed as incorporation of [3H]-methyl group from [3H-Me]-SAM to biotinylated H4K20 peptide substrate preincubated for 10 mins followed by substrate addition by liquid scintillation counting analysis
T2 sequence (Q9NQR1 whole entry): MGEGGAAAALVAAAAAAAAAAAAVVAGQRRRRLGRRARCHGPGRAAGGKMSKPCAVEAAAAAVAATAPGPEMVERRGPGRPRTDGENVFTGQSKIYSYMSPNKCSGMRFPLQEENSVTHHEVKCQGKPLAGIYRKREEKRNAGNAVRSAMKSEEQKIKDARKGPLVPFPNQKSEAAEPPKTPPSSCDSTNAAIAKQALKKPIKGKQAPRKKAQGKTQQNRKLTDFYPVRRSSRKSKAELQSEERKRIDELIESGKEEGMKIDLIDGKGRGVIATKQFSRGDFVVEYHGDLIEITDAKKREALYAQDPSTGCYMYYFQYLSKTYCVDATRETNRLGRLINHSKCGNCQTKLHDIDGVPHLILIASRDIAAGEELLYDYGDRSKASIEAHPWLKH

[4] = biological target: T3, Protein arginine N-methyltransferase 1 (Homo sapiens, UniProt Q99873); experiment: Inhibition of recombinant GST-tagged PRMT1 (unknown origin) using GST-P3 as substrate after 90 mins by scintillation counting analysis in presence of [3H]AdoMet
[5] = biological target: N-lysine methyltransferase SMYD2 (Homo sapiens, UniProt Q9NRG4); experiment: Binding affinity to recombinant human full-length SMYD2 (1 to 433) by ITC analysis
Homo sapiens [6] = species: Homo sapiens; experiment: Selectivity ratio of IC50 for N-terminal His6-tagged human PRMT3 (211 to 531) to IC50 for N-terminal His6-tagged human SETD8 (191 to 352)
Homo sapiens [7] = species: Homo sapiens; experiment: Selectivity ratio of IC50 for human SMYD2 to IC50 for N-terminal His6-tagged human SETD8 (191 to 352)
Homo sapiens [8] = species: Homo sapiens; experiment: Selectivity ratio of IC50 for N-terminal His6-tagged human PRMT1 (10 to 352) to IC50 for N-terminal His6-tagged human SETD8 (191 to 352)
cells [9] = settings: Homo sapiens, HL-60
REH = experiment: cells; settings: Homo sapiens
697 = experiment: cells; settings: Homo sapiens
Jurkat = experiment: cells; settings: Homo sapiens
cells [10] = settings: Homo sapiens, U-937
Kasumi 1 = experiment: cells; settings: Homo sapiens
Mus musculus = experiment: Cmax in Swiss albino mouse at 50 mg/kg, po; assay type: ADME, organism-based; parameters: dose 50 mg/kg, route oral; settings: in vivo
[11] = biological target: Histone-lysine N-methyltransferase, H3 lysine-79 specific (Homo sapiens, UniProt Q8TEK3); experiment: Inhibition of DOT1L in human MCF10A cells assessed as reduction of H3K79 level; assay type: cell-based, MCF-10A
[12] = biological target: T4, Histone-arginine methyltransferase CARM1 (Homo sapiens) (UniProt Q86X55); experiment: Inhibition of CARM1 in human HeLa cells assessed as reduction of H3R17 methylation at 5 uM after 24 hrs by Western blot analysis relative to control; assay type: cell-based
T4 sequence (whole entry): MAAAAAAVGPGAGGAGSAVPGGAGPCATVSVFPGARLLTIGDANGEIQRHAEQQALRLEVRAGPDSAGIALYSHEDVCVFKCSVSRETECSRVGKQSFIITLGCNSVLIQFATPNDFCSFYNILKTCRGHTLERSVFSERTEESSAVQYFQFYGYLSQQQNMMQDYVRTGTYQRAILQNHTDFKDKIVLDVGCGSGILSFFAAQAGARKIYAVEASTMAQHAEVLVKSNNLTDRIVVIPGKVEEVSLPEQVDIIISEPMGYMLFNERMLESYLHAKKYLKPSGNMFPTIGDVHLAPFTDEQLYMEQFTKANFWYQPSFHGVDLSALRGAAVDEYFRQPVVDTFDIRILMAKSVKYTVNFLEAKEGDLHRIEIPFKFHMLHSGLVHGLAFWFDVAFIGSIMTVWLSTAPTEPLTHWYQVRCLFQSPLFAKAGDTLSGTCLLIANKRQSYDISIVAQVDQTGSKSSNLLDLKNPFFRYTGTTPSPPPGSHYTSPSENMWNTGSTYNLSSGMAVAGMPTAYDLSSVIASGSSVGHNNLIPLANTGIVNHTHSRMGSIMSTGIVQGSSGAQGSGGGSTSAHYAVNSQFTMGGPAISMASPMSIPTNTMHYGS

[13] = biological target: Histone-lysine N-methyltransferase EZH2 (Homo sapiens, UniProt Q15910, Y641F); experiment: Inhibition of N-terminal FLAG tagged human EZH2 Y641F mutant expressed in baculovirus infected Sf9 cells using H3K27 as substrate after 120 mins by mass spectrophotometric analysis
[14] = biological target: T1, Histone-lysine N-methyltransferase EZH2; experiment: Inhibition of N-terminal FLAG tagged full-length human EZH2 expressed in baculovirus infected Sf9 cells using H3K27 as substrate after 120 mins by mass spectrophotometric analysis
[15] = biological target: T1, Histone-lysine N-methyltransferase EZH2; experiment: Inhibition of N-terminal FLAG tagged full-length human EZH2 expressed in baculovirus infected Sf9 cells using H3K27 as substrate in presence of SAM
[16] = biological target: T5, Histone-lysine N-methyltransferase EHMT2 (Homo sapiens, UniProt Q96KQ7); experiment: Inhibition of G9a (unknown origin) using SAM/biotinylated H3 as substrate preincubated for 1 hr followed by substrate addition measured after 2 hrs by ELISA
T5 sequence (Q96KQ7 whole entry): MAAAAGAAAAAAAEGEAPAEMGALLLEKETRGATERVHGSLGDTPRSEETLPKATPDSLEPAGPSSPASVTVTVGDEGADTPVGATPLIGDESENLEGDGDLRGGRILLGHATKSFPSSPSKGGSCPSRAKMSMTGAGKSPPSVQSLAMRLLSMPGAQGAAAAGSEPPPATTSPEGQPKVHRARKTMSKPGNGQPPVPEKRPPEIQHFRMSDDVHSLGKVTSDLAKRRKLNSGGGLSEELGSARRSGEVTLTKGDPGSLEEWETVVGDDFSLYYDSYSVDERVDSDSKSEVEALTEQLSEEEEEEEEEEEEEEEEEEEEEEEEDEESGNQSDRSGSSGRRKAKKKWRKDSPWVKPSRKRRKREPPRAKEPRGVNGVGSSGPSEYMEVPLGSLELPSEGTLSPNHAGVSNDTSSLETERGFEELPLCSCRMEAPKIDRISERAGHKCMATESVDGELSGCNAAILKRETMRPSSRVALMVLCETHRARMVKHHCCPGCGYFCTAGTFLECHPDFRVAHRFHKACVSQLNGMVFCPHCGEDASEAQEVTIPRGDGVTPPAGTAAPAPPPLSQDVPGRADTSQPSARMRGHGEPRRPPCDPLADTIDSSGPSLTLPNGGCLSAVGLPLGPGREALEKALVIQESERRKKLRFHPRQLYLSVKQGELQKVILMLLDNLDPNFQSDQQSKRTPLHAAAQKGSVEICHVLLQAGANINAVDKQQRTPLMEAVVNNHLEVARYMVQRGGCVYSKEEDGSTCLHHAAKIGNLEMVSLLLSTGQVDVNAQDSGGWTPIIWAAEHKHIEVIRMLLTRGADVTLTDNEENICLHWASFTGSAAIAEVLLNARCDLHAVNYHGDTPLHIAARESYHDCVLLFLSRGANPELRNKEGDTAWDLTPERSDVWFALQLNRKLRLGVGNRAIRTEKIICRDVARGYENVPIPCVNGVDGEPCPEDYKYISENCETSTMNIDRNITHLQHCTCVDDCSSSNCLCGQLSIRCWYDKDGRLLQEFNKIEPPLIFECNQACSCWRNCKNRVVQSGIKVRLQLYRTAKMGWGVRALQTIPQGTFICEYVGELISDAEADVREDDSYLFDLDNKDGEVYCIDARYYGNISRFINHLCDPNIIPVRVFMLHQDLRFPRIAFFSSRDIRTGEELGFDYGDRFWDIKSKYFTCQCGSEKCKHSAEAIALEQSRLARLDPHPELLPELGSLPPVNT

[17] = biological target: T3, Protein arginine N-methyltransferase 1; experiment: Inhibition of recombinant human GST-tagged PRMT1 using GST-Npl3 as substrate
[18] = biological target: T6, Histone-arginine methyltransferase CARM1 (Homo sapiens, UniProt Q86X55); experiment: Inhibition of recombinant human GST-tagged CARM1
T6 sequence (Q86X55 whole entry): T4 sequence (whole entry)

[19] = biological target: T7, Histone-lysine N-methyltransferase EHMT1 (Homo sapiens, UniProt Q9H9B1); experiment: Inhibition of recombinant human GLP (951 to 1235) using Histone H3 peptide (1 to 15) as substrate preincubated on ice for 10 mins followed by 5 mins incubation at 30 degC measured 5 mins post substrate addition by mass spectrophotometric analysis
T7 sequence (Q9H9B1 whole entry): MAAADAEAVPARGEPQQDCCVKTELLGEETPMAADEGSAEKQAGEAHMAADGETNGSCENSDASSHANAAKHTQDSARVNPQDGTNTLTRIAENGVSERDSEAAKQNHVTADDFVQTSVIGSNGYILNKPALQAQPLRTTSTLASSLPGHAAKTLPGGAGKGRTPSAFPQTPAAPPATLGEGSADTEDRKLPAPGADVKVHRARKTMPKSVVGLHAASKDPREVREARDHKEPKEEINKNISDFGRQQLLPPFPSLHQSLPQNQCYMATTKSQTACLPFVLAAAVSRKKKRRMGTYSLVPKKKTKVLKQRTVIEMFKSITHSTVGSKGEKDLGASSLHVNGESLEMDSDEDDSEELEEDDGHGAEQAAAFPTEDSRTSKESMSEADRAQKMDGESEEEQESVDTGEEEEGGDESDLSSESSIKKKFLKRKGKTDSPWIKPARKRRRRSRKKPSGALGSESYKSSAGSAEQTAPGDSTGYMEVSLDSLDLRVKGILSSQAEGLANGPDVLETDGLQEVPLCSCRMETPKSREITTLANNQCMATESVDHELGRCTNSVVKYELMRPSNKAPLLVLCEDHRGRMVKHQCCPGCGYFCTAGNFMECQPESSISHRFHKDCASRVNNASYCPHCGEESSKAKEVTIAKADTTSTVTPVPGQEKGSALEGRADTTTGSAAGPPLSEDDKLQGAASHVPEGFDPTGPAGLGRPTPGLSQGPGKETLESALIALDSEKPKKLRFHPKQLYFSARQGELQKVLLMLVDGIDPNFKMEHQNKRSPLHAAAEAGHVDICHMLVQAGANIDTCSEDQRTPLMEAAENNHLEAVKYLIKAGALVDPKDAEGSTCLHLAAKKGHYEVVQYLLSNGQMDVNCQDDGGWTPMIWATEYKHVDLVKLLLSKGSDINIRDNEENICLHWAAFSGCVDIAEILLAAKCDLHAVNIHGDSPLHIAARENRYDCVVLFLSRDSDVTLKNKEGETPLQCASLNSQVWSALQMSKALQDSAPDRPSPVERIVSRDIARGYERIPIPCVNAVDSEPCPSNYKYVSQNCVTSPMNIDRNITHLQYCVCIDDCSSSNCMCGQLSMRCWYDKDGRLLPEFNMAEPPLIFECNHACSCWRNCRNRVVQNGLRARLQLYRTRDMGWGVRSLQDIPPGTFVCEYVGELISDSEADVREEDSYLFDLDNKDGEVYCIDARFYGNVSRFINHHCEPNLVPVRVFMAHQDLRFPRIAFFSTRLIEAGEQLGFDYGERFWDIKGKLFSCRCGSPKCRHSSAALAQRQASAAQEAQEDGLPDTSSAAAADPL

T1 sequence (Q15910 whole entry): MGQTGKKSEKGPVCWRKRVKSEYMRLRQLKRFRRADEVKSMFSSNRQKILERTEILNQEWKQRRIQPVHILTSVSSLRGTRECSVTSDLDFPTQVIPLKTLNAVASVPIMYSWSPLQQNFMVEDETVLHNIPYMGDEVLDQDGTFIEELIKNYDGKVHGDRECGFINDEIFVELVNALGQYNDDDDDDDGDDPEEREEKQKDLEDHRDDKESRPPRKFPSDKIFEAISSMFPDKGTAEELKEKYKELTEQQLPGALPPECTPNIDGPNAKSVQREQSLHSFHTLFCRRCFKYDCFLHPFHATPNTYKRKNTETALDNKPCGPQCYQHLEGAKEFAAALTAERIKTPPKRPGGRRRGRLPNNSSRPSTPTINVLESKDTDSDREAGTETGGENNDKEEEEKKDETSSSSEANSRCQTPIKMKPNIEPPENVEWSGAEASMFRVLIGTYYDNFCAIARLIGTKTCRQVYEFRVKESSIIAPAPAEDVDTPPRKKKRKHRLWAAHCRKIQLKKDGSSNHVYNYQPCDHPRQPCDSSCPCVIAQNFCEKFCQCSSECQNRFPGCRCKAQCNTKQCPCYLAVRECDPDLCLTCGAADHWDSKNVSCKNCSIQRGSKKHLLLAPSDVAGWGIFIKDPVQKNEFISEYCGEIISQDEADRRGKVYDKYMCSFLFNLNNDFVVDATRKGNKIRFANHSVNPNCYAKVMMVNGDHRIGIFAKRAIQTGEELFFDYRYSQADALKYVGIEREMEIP
T3 sequence (Q99873 whole entry): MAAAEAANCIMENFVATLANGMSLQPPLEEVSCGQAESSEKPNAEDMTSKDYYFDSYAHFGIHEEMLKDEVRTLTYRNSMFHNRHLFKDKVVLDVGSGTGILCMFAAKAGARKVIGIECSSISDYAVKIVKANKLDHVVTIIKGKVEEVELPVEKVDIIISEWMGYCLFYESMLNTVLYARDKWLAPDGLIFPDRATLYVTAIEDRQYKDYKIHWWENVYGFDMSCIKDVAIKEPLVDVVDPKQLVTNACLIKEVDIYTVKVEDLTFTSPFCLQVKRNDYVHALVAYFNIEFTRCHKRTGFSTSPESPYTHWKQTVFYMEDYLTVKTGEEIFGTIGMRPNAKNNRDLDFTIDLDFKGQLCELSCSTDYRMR
Sequence of N-lysine methyltransferase SMYD2 (Q9NRG4 whole entry): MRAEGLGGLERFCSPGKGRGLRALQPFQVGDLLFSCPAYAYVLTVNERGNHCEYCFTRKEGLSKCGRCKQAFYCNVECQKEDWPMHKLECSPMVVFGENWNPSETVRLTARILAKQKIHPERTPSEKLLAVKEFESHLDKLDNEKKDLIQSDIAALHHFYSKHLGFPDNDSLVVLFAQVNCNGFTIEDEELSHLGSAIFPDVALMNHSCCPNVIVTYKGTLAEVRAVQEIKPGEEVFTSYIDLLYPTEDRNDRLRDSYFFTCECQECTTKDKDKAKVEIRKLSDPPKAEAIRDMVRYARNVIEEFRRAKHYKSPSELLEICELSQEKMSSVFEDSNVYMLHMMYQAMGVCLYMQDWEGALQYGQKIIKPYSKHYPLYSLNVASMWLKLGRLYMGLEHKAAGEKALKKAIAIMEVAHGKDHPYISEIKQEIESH
Sequence of Histone-lysine N-methyltransferase, H3 lysine-79 specific (Q8TEK3 whole entry): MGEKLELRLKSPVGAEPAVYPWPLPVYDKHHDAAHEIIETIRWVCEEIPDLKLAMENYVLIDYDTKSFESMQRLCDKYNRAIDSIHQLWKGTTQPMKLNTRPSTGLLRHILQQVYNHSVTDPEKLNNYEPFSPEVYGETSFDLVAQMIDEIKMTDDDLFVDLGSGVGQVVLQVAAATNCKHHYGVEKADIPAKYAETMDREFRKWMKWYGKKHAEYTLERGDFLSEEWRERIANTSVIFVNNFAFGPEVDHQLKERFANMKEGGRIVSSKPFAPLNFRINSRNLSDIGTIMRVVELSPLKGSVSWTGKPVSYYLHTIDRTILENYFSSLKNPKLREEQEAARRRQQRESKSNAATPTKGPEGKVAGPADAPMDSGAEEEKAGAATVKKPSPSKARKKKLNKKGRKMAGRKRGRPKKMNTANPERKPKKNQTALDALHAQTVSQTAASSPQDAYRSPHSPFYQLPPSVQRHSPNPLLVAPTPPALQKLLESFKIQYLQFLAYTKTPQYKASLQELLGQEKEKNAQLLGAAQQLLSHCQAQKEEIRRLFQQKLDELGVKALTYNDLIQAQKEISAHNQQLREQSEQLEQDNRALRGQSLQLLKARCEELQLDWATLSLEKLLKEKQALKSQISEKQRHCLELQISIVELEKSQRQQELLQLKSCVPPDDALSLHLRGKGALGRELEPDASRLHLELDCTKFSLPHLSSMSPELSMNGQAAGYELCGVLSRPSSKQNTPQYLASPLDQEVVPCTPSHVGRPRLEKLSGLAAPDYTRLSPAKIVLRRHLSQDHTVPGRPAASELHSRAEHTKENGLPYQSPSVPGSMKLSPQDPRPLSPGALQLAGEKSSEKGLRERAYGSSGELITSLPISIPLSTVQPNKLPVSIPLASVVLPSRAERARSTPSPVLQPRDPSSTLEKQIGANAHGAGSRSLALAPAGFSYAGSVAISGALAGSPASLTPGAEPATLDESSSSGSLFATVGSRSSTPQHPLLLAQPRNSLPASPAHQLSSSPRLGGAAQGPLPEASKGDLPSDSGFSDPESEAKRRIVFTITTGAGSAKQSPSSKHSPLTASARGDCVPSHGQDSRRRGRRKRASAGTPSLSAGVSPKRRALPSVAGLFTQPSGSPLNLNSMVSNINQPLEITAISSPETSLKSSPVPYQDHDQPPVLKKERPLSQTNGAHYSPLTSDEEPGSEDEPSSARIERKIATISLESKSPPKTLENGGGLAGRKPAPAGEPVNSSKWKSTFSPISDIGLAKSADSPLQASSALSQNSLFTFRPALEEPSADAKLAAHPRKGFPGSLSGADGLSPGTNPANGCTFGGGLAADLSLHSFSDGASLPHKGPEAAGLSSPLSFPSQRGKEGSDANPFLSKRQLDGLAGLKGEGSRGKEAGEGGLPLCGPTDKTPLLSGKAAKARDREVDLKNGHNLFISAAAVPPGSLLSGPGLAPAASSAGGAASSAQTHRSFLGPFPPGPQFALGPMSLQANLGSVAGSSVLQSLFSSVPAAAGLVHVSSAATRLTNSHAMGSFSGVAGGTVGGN
Sequence of Histone-lysine N-methyltransferase EZH2 (Homo sapiens, UniProt Q15910, Y641F) (Q15910 whole entry Y641F): as the sequence (Q15910 whole entry) above, with Y641F counted along it

CCCc1cc(C)[nH]c(=O)c1CNC(=O)c1cc(-c2ccc(N3CCN(CCCCc4cn(CCN5C(=O)\C(=C/C=C/C=C6/N(CCC(=O)OCOC(C)=O)c7ccc(C(=O)OCOC(C)=O)cc7C6(C)C)C(=O)N(CC)C5=O)nn4)CC3)nc2)cc2c1cnn2C(C)C
IC50 [1]: 21 nM

Cc1cc(C)c(CNC(=O)c2cc(-c3ccc4c(c3)OCCO4)nc3c2cnn3C(C)C)c(=O)[nH]1
IC50 [2]: 620 nM

Cc1ccc(/N=C2\CC(=O)c3sc(C)nc3C2=O)cc1
IC50 [3]: 500 nM

NCCCN(CC[C@H](N)C(=O)O)C[C@H]1O[C@@H](n2cnc3c(N)ncnc32)[C@H](O)[C@@H]1O
IC50 [4]: 3900 nM

O=C1COc2c(CCNCCN(C(=O)CCNCCc3ccc(Cl)c(Cl)c3)C3CCCCC3)ccc(O)c2N1
Kd [5]: 500 nM

O=C1C(Cl)=C(NCCN2CCOCC2)C(=O)c2ncccc21
Ratio IC50 (Homo sapiens [6]): > 6 | Ratio IC50 (Homo sapiens [7]): 2.5 | Ratio IC50 (Homo sapiens [8]): > 6

CC(C)N(CCCNC(=O)Nc1ccc(C(C)(C)C)cc1)C[C@H]1O[C@@H](n2ccc3c(N)ncnc32)[C@H](O)[C@@H]1O
IC50 (cells [9]): > 10000 nM | IC50 (REH): > 10000 nM | IC50 697: > 10000 nM | IC50 (Jurkat): > 10000 nM | IC50 (cells [10]): > 10000 nM | IC50 (Kasumi 1): > 10000 nM

CCCc1cc(C)[nH]c(=O)c1CNC(=O)c1cc(-c2ccc(N3CCN(C(C)C)CC3)nc2)cc2c1cnn2C(C)C
IC50 [1]: < 10 nM | Cmax (Mus musculus): 4.7 µM

CC(C)N(CCCNC(=O)Nc1ccc(C(C)(C)C)cc1)C[C@H]1O[C@@H](n2cc(Br)c3c(N)ncnc32)[C@H](O)[C@@H]1O
IC50 [11]: 8.8 nM

O=c1oc2c(O)c(O)cc3c(=O)oc4c(O)c(O)cc1c4c23
inhibition [12]: > 50%

CCC(CC)n1ccc2c(C(=O)NCc3c(C)cc(C)[nH]c3=O)cc(C#N)cc21
IC50 [13]: 13 nM | IC50 [14]: 15 nM | Ki [15]: 13 nM

CN1C(=O)[C@@H]2C[C@@]3([C@@]45C[C@H]6C(=O)N(C)[C@@H](CO)C(=O)N6[C@@H]4Nc4ccccc45)c4ccccc4N[C@H]3N2C(=O)[C@@H]1CO
IC50 [16]: > 50000 nM

COc1ccc(/N=N/c2c(S(=O)(=O)O)cc3cc(Nc4nc(Cl)nc(Cl)n4)ccc3c2O)cc1
IC50 [17]: 4200 nM | IC50 [18]: 2600 nM

COc1cc2c(NC3CCN(CCCCCN)CC3)nc(NCCCN(C)C)nc2cc1OCCCCCN
IC50 [19]: 100 nM
